Test results published in ChEMBL document CHEMBL5584262, “Plakevulin A induces apoptosis and suppresses IL-6-induced STAT3 activation in HL60 cells” (Bioorg Med Chem Lett, 2024).
Each block holds one molecule with its values, some of them ahead of it. Active and inactive are the calls of the source. No cut-off for these calls is given here. *1 amine or outer side, *2 acyl side, *3 side chain or, on linkers, in order; H or OH if unused. Where a SMILES comes first, the peptide text is derived from it. Bridges are numbered along the chain shown (N, C = ends). Roman numbers before positions name the chains, in order. [ ]: non-standard residue; d: D form. Actinocin(9to1) = Cc1c2oc3c(C)ccc(C(=O)[*:1])c3nc-2c(C(=O)[*:2])c(N)c1=O; NMeV = CN[C@H](C(=O)O)C(C)C; Sar = CNCC(=O)O

What was measured:
HL-60 [1] = test: Cytotoxicity against human HL-60 cells assessed as inhibition of cell viability incubated for 48 hrs by WST-8 assay; format: functional, cell-based; settings: HL-60, 48 h
[2] = biological target: T1, Peroxisomal multifunctional enzyme type 2 (Homo sapiens) (UniProt P51659); test: Binding affinity to HSD17B4 in human HL-60 cell lysate by pull down assay; format: subcellular
T1 sequence (whole entry): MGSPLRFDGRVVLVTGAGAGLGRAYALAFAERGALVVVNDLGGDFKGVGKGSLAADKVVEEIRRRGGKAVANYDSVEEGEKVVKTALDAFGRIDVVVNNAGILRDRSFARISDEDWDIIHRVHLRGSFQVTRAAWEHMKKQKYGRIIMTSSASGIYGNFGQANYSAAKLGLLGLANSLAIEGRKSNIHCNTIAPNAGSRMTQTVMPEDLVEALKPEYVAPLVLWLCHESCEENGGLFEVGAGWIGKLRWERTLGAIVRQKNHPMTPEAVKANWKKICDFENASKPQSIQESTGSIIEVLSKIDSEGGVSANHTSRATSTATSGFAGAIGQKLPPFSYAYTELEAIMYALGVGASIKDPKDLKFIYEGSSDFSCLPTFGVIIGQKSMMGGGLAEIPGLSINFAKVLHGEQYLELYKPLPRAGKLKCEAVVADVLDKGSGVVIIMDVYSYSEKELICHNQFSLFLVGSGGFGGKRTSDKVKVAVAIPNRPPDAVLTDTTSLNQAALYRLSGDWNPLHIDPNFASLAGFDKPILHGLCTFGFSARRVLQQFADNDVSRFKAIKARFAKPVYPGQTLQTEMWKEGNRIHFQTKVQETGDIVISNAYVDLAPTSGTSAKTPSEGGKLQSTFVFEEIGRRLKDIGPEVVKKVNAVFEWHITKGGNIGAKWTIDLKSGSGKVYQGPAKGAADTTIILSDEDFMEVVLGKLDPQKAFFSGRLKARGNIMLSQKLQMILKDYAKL

[3] = biological target: T1, Peroxisomal multifunctional enzyme type 2 (Homo sapiens); test: Binding affinity to HSD17B4 in human HL-60 cell lysate by Western blot analysis; format: subcellular
HL-60 [4] = test: Downregulation of IL-6-induced STAT3 phosphorylation in human HL-60 cells pretreated for 24 hrs followed by IL-6 stimulation by Western blot analysis; format: functional, cell-based
HL-60 [5] = test: Induction of apoptosis in Z-VAD-fmk-treated human HL-60 cells assessed as DNA fragmentation at 1 uM treated for 24 hrs by agarose gel electrophoresis; format: functional, cell-based
HL-60 [6] = test: Induction of apoptosis in human HL-60 cells assessed as DNA fragmentation at 1 uM treated for 24 hrs by agarose gel electrophoresis; format: functional, cell-based
[7] = Inhibition of calf DNA polymerase alpha using DNA as substrate incubated for 60 mins in presence of […]; parameters: species or system Bos taurus
HeLa = test: Cytotoxicity against human HeLa cells assessed as inhibition of cell viability incubated for 24 hrs by MTT assay; format: functional, cell-based
MRC5 = test: Cytotoxicity against human MRC5 cells assessed as inhibition of cell viability incubated for 24 hrs by MTT assay; format: functional, cell-based; settings: MRC5, 24 h
HL-60 [8] = test: Induction of apoptosis in Z-VAD-fmk-treated human HL-60 cells assessed as inhibition of caspase-3 activation at 5 uM treated for 24 hrs by Ac-DEVD-MCA substrate based analysis; format: functional, cell-based
HL-60 [9] = test: Induction of apoptosis in Z-VAD-fmk-treated human HL-60 cells assessed as DNA fragmentation at 5 uM treated for 24 hrs by agarose gel electrophoresis; format: functional, cell-based
DNA polymerase beta = DNA polymerase beta (Rattus norvegicus, UniProt P06766); test: Inhibition of rat DNA polymerase beta using DNA as substrate incubated for 60 mins in presence of […]
HL-60 [10] = test: Cytotoxicity against human HL-60 cells assessed as inhibition of cell viability incubated for 24 hrs by MTT assay; format: functional, cell-based; settings: HL-60, 24 h
HL-60 [11] = test: Induction of apoptosis in human HL-60 cells assessed as DNA fragmentation at 5 uM treated for 24 hrs by agarose gel electrophoresis; format: functional, cell-based
MC3T3-E1 = test: Cytotoxicity against mouse MC3T3-E1 cells assessed as inhibition of cell viability incubated for 24 hrs by MTT assay; format: functional, cell-based; settings: MC3T3-E1, 24 h

Activity [2]: Active
Activity [3]: Active
SMILES: CCCCCCCCCCCCCCCC[C@]1(O)C=C[C@H](OC(=O)CCCCCNC(=O)CCCC[C@@H]2SC[C@@H]3NC(=O)N[C@@H]32)[C@H]1C(=O)OC
IC50 (HL-60 [1]): 5.76 µM

SMILES: CO/C=C(/C(=O)OC)c1ccccc1COc1cc(C(F)(F)F)nc(OC(C)C)n1
Activity (HL-60 [4]): Dose-Dependent Effect

Activity [2]: inactive
SMILES: O=C(O)CCCCCNC(=O)CCCC[C@@H]1SC[C@@H]2NC(=O)N[C@@H]21

SMILES: Cc1c2oc3c(C)ccc(C(=O)N[C@@H]4C(=O)N[C@H](C(C)C)C(=O)N5CCC[C@H]5C(=O)N(C)CC(=O)N(C)[C@@H](C(C)C)C(=O)O[C@@H]4C)c3nc-2c(C(=O)N[C@@H]2C(=O)N[C@H](C(C)C)C(=O)N3CCC[C@H]3C(=O)N(C)CC(=O)N(C)[C@@H](C(C)C)C(=O)O[C@@H]2C)c(N)c1=O (I: T[dV]P[Sar][NMeV] / II: T[dV]P[Sar][NMeV]; ester I:1-I:C, II:1-II:C; linker I:N-II:N via Actinocin(9to1))
Activity (HL-60 [5]): inactive
Activity (HL-60 [6]): Active

IC50 [7]: 137 µM
IC50 (DNA polymerase beta): 189 µM
SMILES: CCCCCCCCCCCCCCCC[C@]1(O)C=C[C@H](O)[C@H]1C(=O)OC [PLAKEVULIN A]
IC50 (HeLa): 11.5 µM
Activity (HL-60 [4]): Dose-Dependent Effect
IC50 (HL-60 [1]): 2.63 µM
IC50 (MRC5): > 15 µM
inhibition (HL-60 [8]): Active
Activity (HL-60 [9]): inactive
IC50 (HL-60 [10]): 2.02 µM
Activity (HL-60 [11]): Active
IC50 (MC3T3-E1): 12.4 µM
